Reference: US12108762B2, “Methods of controlling crop pests using aromatic amide insect repellents, methods of making aromatic amide insect repellents, and novel aromatic amide insect repellents” (priority 2020, dated 2024)
Entries after “also recorded” stand apart in the source; their conditions may differ.

Key:
Assay type in all cases: in vivo
Drosophila melanogaster [1] = assay: One-choice (single-trap) olfactory trap assay; conditions: for repellency compared with DEET, one-choice trap assay: 25 μl of 25% by weight in DMSO on filter paper, 10% ACV attractant, 6 hours (FIG. 10) and 24 hours (FIG. 13); for fly death during the 6-hour screen: starved flies
Protocol: (§1) The D. melanogaster assays served as a model for SWD repellency. Forty different aromatic amides were studied at a 25% concentration by weight in DMSO, and the fruit fly chemosensory behaviors in response thereto were characterized. […]
(§2) Flies were monitored throughout their life cycle. Five-day-old flies (10 male and 10 females) were selected per assay, and starved for a predetermined length of time (e.g., 20 hours). After starvation, two different assays were used to study the olfactory related responses.
FIG. 7A is a diagram of a single-trap olfactory assay. Flies 105 were placed in a cylindrical chamber 100 containing a trap 110. The trap 110 was fashioned from an upturned 1.5 ml micro-centrifuge tube where the tapered end was trimmed away. A pipette tip 120 was cut to form a funnel and inserted into the bottom of the inverted micro-centrifuge tube 110. Then, filter paper 130 was placed between the pipette tip 120 and tip of micro-centrifuge tube 110. The pipette tip 120 was placed so that entering flies could not make physical contact with the filter paper 130. The filter paper 130 was placed in this manner so that when the filter paper 130 was treated with the repellent solution, the flies would only be able to smell at a distance and should be repelled even in the presence of an attractant.
A 25 μl sample of test compound at 25% concentration was applied to the filter paper 130 in order to provide the odor source. At the bottom of the trap 110, 125 μl of 10% apple cider vinegar (ACV) was placed as an attractant. Trials were conducted for 24 hours to visualize the number of flies 105 entering the trap 110. Typically, flies that entered the trap 110 contacted the liquid ACV and died in the ACV. Flies were counted and recorded at 4, 6, and 24 hours. No control other than DEET was used for this experiment, because it was a single trap, comparing the number of flies 105 repelled by the repellent versus the number of flies 105 interacting with the attractant (ACV).
(§3) The different assays assigned results as follows. For the single-choice olfactory assay, the numbers of flies were counted according to (1) those that entered the trap, (2) those that stayed outside the trap and lived, and (3) those that died outside the trap. For the two-choice olfactory assay, the numbers of flies were counted according to (1) those that entered the control trap, (2) those that entered the trap containing the repellent, (3) those that stayed outside of both traps and lived, and (4) those that died outside the traps. For the gustatory assay, the numbers of flies were counted according to those that had (1) a red-colored abdomen, (2) a blue-colored abdomen, (3) a purple abdomen, and (4) no added color to their abdomen. A nonparametric Mann-Whitney U test was used to compare the statistical differences between assays using DEET and the same assays using one of the present repellents for all trials.

Drosophila melanogaster [2] = assay: Two-choice trap olfactory assay; conditions: for interaction with control trap in comparison with repellent-treated trap: low participation; for trap preference (control trap versus repellent-treated trap): DMSO control vs 25 μl of 25% by weight in DMSO
Protocol: as §1, §2
FIG. 7B is a diagram of a 2-choice trap olfactory assay. Two ACV traps 110a-b were prepared as above, in a cylinder 150 from upturned 1.5 ml micro-centrifuge tubes with the tapered end trimmed away, and a pipette 120a-b inserted into the inverted micro-centrifuge tube. In the cylinder 150, one trap 110a was treated with 25 μl of DMSO (as a control) on the filter paper 135, and the other trap 110b with the 25 μl of the 25% by weight solution of the test compound in DMSO applied to the filter paper 130. 125 μl of 10% ACV, diluted with water, was placed in the bottom of the traps 110a-b. Both traps contained filter paper as prepared in the one-trap assay. All trials were screened for 24 hours, and the number of flies 105 in each trap was counted. Positions of the traps (i.e., left or right, relative to the location of the chamber 150 in the room) were randomized. The number of flies 105 in each trap 110a and 110b were counted and recorded at 4, 6 and 24 hours.
as §3

Drosophila melanogaster [3] = assay: Gustatory assay (fructose preference, food colouring); conditions: 1 hour feeding; for gustatory repellency (preference for repellent-treated sugar versus control-treated sugar): 35 mM fructose with 5 mM repellent vs 25 mM fructose control; for gustatory repellency compared with DEET: 5 mM repellent, FIG. 12
Protocol: The D. melanogaster assays served as a model for SWD repellency. Forty different aromatic amides were studied at a 25% concentration by weight in DMSO, and the fruit fly chemosensory behaviors in response thereto were characterized.
In the gustatory assay, the consumption of sugar (from a solution in a gel) treated at varying concentrations of the present repellent compounds was compared to the consumption of control-treated sugar. For the habituation assay, flies were tested over repeated exposures to the present repellent compounds to measure changes in behavioral preference for the compounds.
Flies were continuously monitored throughout their lifecycle. In doing so, 3- to 5-day-old flies (half male and half female) were selected and starved for 20 hours. Flies were then introduced to 96-well plates 200 with wells 210a-220vv that were alternately filled with two different sugar solutions, as shown in FIG. 8. Wells 210a-210vv were filled with 25 mM fructose in DMSO (as a control), colored with red food coloring, and wells 220a-220vv were filled with […] fructose mixed with 5 mM of the present insect repellent in DMSO, colored with blue food coloring. The food coloring is nontoxic, so it has no effect on preference. Using an established protocol (Montell, C., et al., Avoiding DEET through insect gustatory receptors. NIH Neuron 67(4), 2010, 555-561: doi:10.1016/j.neuron.2010.07.006), flies selected between the fructose control or fructose mixed with aromatic amide repellent. Tests were performed on at least one group of about 50 males and at least one group of 50 females. Flies were placed in the dark for 1 hour, then the food coloring in the fly's abdomen was visualized under a compound microscope. The color of the abdomen was noted, along with the intensity, providing a quantitative idea of how much sugar each fly consumed, and from which type of well (control vs. mixed with repellent). The flies were fed for one hour so that the amount of food coloring was significant enough to be visible. A preference index was made to define the amount of food coloring consumed and assess the degree of repellent avoidance via gustatory processes.
as §3

[4] = one-choice trap, 25% concentration
[5] = one-choice trap, 25% concentration, 6 hours

SMILES | repellency compared with DEET, one-choice trap assay (Drosophila melanogaster [1]) | fly death during the 6-hour screen (Drosophila melanogaster [1]; [5]) | participation in choosing either trap (Drosophila melanogaster [2]; 25% by weight, 6 hours) | trap preference (control trap versus repellent-treated trap) (Drosophila melanogaster [2]; 6 hours) | further results
Cc1cccc(C(=O)N2CCCCC2)c1 [Compound 1mC] | more effective than DEET | no fly death | less overall participation | preference for the control trap | aversion (no flies entering the single-choice trap) (Drosophila melanogaster [1]; [4]): 100%; ranking among repellents in the one-choice assay (Drosophila melanogaster [1]; [4]): most effective repellents; repellency (Drosophila melanogaster [1]; [5]): significant repellency; average number of flies that chose a trap in 6 hours (Drosophila melanogaster [2]; 25% by weight, 20 flies per assay, 6 hours): 1 flies; interaction with control trap in comparison with repellent-treated trap (Drosophila melanogaster [2]; 25% by weight): more flies interacted with the control trap
Cc1cccc(C(=O)N2CCOCC2)c1 [Compound 1mD] | – | – | – | – | gustatory repellency (preference for repellent-treated sugar versus control-treated sugar) (Drosophila melanogaster [3]): act as a gustatory repellent
Cc1cccc(C(=O)N2CCN(C)CC2)c1 [Compound 1mE, 1-methyl-4-(3-methylbenzoyl)piperazine] | more effective than DEET | some fly death | – | – | –
Cc1ccccc1C(=O)N1CCOCC1 [Compound 1oD] | more effective than DEET | some fly death | less overall participation | preference for the control trap | –
Cc1ccccc1C(=O)N1CCN(C)CC1 [Compound 1oE] | – | – | less overall participation | preference for the control trap | interaction with control trap in comparison with repellent-treated trap (Drosophila melanogaster [2]; 25% by weight): more flies interacted with the control trap
O=C(c1cccc(F)c1)N1CCCCC1 [Compound 2mC] | more effective than DEET | – | – | – | –
O=C(c1ccccc1F)N1CCCC1 [Compound 2oB] | – | – | less overall participation | preference for the control trap | interaction with control trap in comparison with repellent-treated trap (Drosophila melanogaster [2]; 25% by weight): more flies interacted with the control trap
O=C(c1ccccc1F)N1CCCCC1 [Compound 2oC] | more effective than DEET | no fly death | – | – | repellency (Drosophila melanogaster [1]; [5]): significant repellency
O=C(c1ccccc1F)N1CCOCC1 [Compound 2oD] | more effective than DEET | – | – | – | –
O=C(c1cccc(C(F)(F)F)c1)N1CCCC1 [Compound 3mB] | more effective than DEET | no fly death | less overall participation | preference for the control trap | repellency (Drosophila melanogaster [1]; [5]): significant repellency
O=C(c1cccc(C(F)(F)F)c1)N1CCCCC1 [Compound 3mC] | more effective than DEET | no fly death | less overall participation | preference for the control trap | repellency (Drosophila melanogaster [1]; [5]): significant repellency; gustatory repellency compared with DEET (Drosophila melanogaster [3]): significantly worse than DEET; gustatory repellency (preference for repellent-treated sugar versus control-treated sugar) (Drosophila melanogaster [3]): act as a gustatory repellent
O=C(c1cccc(C(F)(F)F)c1)N1CCOCC1 [Compound 3mD] | more effective than DEET | some fly death | – | – | –
O=C(c1ccccc1C(F)(F)F)N1CCCC1 [Compound 3oB] | more effective than DEET | – | – | – | –
CN1CCN(C(=O)c2ccccc2C(F)(F)F)CC1 [Compound 3oE] | more effective than DEET | – | – | – | –
O=C(c1cccc([N+](=O)[O-])c1)N1CCCCC1 [Compound 4mC] | more effective than DEET; also recorded: significantly better than DEET | all the flies were dead | – | – | average number of flies that entered the trap (Drosophila melanogaster [1]; one-choice trap, 25% concentration, 20 flies per assay, 6 hours): 5 flies; fly mortality (Drosophila melanogaster [1]; one-choice trap, 25% concentration, exposure in the gas phase): high mortality
O=C(c1cccc([N+](=O)[O-])c1)N1CCOCC1 [Compound 4mD] | – | – | – | – | gustatory repellency (preference for repellent-treated sugar versus control-treated sugar) (Drosophila melanogaster [3]): act as a gustatory repellent
CN1CCN(C(=O)c2ccccc2[N+](=O)[O-])CC1 [Compound 4oE] | more effective than DEET | some fly death | – | – | –
COc1cccc(C(=O)N2CCCC2)c1 [Compound 5mB] | – | – | much higher mean participation | significantly greater preference for the control trap | gustatory repellency compared with DEET (Drosophila melanogaster [3]): worse than DEET; gustatory repellency (preference for repellent-treated sugar versus control-treated sugar) (Drosophila melanogaster [3]): act as a gustatory repellent; also recorded: slightly lower preference
COc1cccc(C(=O)N2CCCCC2)c1 [Compound 5mC] | more effective than DEET | – | – | – | gustatory repellency (preference for repellent-treated sugar versus control-treated sugar) (Drosophila melanogaster [3]): act as a gustatory repellent
COc1cccc(C(=O)N2CCN(C)CC2)c1 [Compound 5mE] | – | – | less overall participation | preference for the control trap | –
COc1ccccc1C(=O)N1CCCCC1 [Compound 5oC] | more effective than DEET | – | – | – | –
Nc1cccc(C(=O)N2CCCC2)c1 [Compound 6mB] | – | – | higher mean participation | preferred the control trap | –
CN1CCN(C(=O)c2cccc(N)c2)CC1 [Compound 6mE] | more effective than DEET | – | – | – | –
Nc1ccccc1C(=O)N1CCCCC1 [Compound 6oC] | more effective than DEET | – | – | – | –
